Experimental findings from US12390532B2, “ALK protein regulator and anti-tumor application thereof” (SHANGHAITECH UNIVERSITY, priority 2019, dated 2025) are described below.

Where two headings read alike, the source gives them in different places.

One experiment concerns the target T1, ALK protein (Homo sapiens, UniProt Q9UM73).
T1 construct: We studied the total ALK protein in the anaplastic large cell lymphoma cell line SR; host or cells: SR cells (human anaplastic large cell lymphoma); the other entry of the earlier key: NPM1 (P06748, Nucleophosmin)
Description: Western blot of ALK protein degradation in SR cells. It is filed as cell-based. How it is done: The ALK gene rearrangement positive cell line used was SR cells (NPM-ALK, human anaplastic large cell lymphoma cells). MDA-MB231 was a triple-negative breast cancer cell. Both SR cells and MDA-MB231 cells were purchased from ATCC. The 293T cells overexpressing EML4-ALK G1202R were the cells constructed and verified for correct expression by this laboratory.
Tumor cells were seeded in a 24-well plate containing 1 ml of RPMI1640 medium at 1.5-3×10^5 cells/well. The next day, the cells were treated with different concentrations of drugs. After 16 hours, the supernatant was removed and the cells were washed with PBS. The cells were placed on ice and the cells were treated with RIPA protein lysate containing Halt protease and phosphatase inhibitors. The lysate was centrifuged at 10000RPM at 4° C. for 10 minutes, and the supernatant was collected. The same amount of protein was added to the 4×SDS sample solution, denatured at 95° C. for 5 minutes and freezen to −20° C., or protein electrophoresis was directly performed. GenScript, a 4-20% gradient protein precast gel was used as the electrophoresis gel. The electrophoresis tank and related components were purchased from Bio-rad, and the electrophoresis conditions were equal pressure 120 v for 2 hours. PVDF membrane was used for the transfer membrane, and the transfer membrane system was placed on ice with an equal current of 400 mA for one hour. After transferring the membrane, it was sealed with TBST+5% milk powder for half an hour. For the specific steps of immunoblotting, refer to the antibody instructions of Cell Signaling Technology.
DC50 (the drug concentration corresponding to protein degradation to 50%) calculation: according to the gray value of the Western blotting band after the drug is processed, the relationship curve between the drug concentration and the gray value is fitted by Prism GraphPad software to calculate the drug concentration range corresponding half of the gray value.
The cells with different concentrations (0, 10, 50, 100, 500 nM) of Brigatinib were first treated in SR cells for 16 hours. Western blotting was used on cell lysate to detect the effect of Brigatinib on the content of ALK protein (FIG. 2).
Background: A western blot detects proteins with antibodies after separation by electrophoresis.

For experiment [1], the system named is SR cells (NPM-ALK, human anaplastic large cell lymphoma cells). The experiment can be described thus: Proliferation inhibition (IC50) in SR cells, CCK8 (WST) reagent. In kind it is cell-based. As to conditions: 72 h. How it is done: The ALK gene rearrangement positive cell line used was SR cells (NPM-ALK, human anaplastic large cell lymphoma cells). MDA-MB231 was a triple-negative breast cancer cell. Both SR cells and MDA-MB231 cells were purchased from ATCC.
The tumor cell line used was daily cultured in a 37° C. incubator containing 5% CO2. The medium was RPMI1640 supplemented with 10% FCS and Penicillin-Streptomycin.
The IC50 of the compound of the present disclosure was determined using Promega's Cell Titer Blue, Cell Titer GLO or commercially available WST reagents. The specific steps were as follows: the cells were seeded in a 96-well plate containing 100 microliters of RPMI medium containing serum at a number of 2000 cells/well. On the second day, the original drug and the compound of the present disclosure were serially diluted and added to the cells. After 72 hours of treatment with the compound of the present disclosure, the cell activity detection reagent was added to the culture medium for cell activity determination according to the instructions. The negative control was DMSO, and the positive control was the original drug, and the cells were treated in the same manner as the compound of the present disclosure. The growth inhibition of the compounds of the present disclosure on cells was plotted by Prism Graphpad software and the IC50 of the compounds of the present disclosure was counted from it.
We conducted dose-dependent experiments on the designed and synthesized compounds of the present disclosure in SR cells. […] The cells were treated with different concentrations of compounds (starting at 10 μM, 3 times dilution factor, 10 concentrations). After 72 hours, the cells were detected using CCK8 reagent (WST).

Setting [2] is: SR cells, WST reagent, 72 hours, read-out: IC50 (half inhibitory concentration), Brigatinib series in lymphoma cell lines.
The mark [3] stands for this setting: read-out: IC50 (half inhibitory concentration), Alectinib series in lymphoma cell lines, SR cells, WST reagent, 72 hours.

T1 sequence (Q9UM73 with tags, fused parts or gaps): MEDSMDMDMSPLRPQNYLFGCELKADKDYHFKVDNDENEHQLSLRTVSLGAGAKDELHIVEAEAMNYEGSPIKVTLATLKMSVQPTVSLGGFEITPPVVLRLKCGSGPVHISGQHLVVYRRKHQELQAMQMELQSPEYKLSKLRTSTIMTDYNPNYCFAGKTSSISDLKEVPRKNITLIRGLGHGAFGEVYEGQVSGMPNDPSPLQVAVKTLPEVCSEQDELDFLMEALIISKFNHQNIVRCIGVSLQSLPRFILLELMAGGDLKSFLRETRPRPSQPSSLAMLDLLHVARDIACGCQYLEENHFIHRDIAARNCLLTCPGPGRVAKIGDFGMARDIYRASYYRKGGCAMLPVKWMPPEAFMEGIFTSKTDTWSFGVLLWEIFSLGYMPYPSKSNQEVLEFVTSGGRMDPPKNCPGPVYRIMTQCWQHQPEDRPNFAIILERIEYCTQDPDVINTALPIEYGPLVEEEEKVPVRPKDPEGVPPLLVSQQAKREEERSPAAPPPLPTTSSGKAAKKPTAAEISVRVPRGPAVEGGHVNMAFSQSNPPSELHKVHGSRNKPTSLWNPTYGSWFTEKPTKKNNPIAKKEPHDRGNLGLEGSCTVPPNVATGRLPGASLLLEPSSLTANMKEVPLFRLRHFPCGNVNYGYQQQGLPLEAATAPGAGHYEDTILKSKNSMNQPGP

Consider `COc1cc(N2CCC(N3CCN(CCCCCCCC#Cc4cccc5c4CN(C4CCC(=O)NC4=O)C5=O)CC3)CC2)ccc1Nc1ncc(Cl)c(Nc2ccccc2P(C)(C)=O)n1` (centres unmarked) [SIAIS293018, 3-(4-(9-(4-(1-(4-((5-chloro-4-((2-(dimethylphosphono)phenyl)amino)pyrimidin-2-yl)amino)-3-methoxyphenyl)piperidin-4-yl)piperazin-1-yl)non-1-yn-1-yl)-1-oxoisoindolin-2-yl)piperidine-2,6-dione], for which the “concentration from which a degradation effect on ALK protein is shown” value at ALK protein worked out at 5 nM. Besides, the DC50 at ALK protein (16 hours, concentration range at half of the gray value, read-out: DC50 (half degradation concentration), Brigatinib series in lymphoma cell lines) lay within 0.05 to 0.5 nM. The IC50 in experiment [1] (setting [2]) came to 2 nM.

On to `COc1cc(N2CCC(N3CCNCC3)CC2)ccc1Nc1ncc(Cl)c(Nc2ccccc2P(C)(C)=O)n1` [Brigatinib derivative C (SIAIS164005), (2-((5-Chloro-2-((2-methoxy-4-(4-(piperazin-1-yl)piperidin-1-yl)phenyl)amino)pyrimidin-4-yl)amino)phenyl) dimethyl phosphine oxide, reference compound], for which the “degradation effect on ALK protein” value on ALK protein (16 hours, concentrations up to 500 nM) is listed as “no degradation effect”. In addition, the IC50 in experiment [1] (setting [2]) was found to be 11.1 nM.

On to `COc1cc(N2CCC(N(C)C(=O)CSc3cccc4c3CN(C3CCC(=O)NC3=O)C4=O)CC2)ccc1Nc1ncc(Cl)c(Nc2ccccc2P(C)(C)=O)n1` (centres unmarked) [SIAIS353007, N-(1-(4-((5-chloro-4-((2-(dimethylphosphono)phenyl)amino)pyrimidin-2-yl)amino)-3-methoxyphenyl)piperidin-4-yl)-2-((2-(2,6-dioxopiperidin-3-yl)-1-oxoisoindolin-4-yl)thio)-N-methyl acetamide], for which, in experiment [1] (setting [2]), the IC50 was found to be 17.1 ± 10.9 nM.

With `COc1cc(N2CCC(NCCCCCCSc3cccc4c3CN(C3CCC(=O)NC3=O)C4=O)CC2)ccc1Nc1ncc(Cl)c(Nc2ccccc2P(=O)(OC)OC)n1` (centres unmarked) [SIAIS293110, 3-(4-((6-((1-(4-((5-chloro-4-((2-(dimethylphosphono)phenyl)amino)pyrimidin-2-yl)amino)-3-methoxyphenyl)piperidin-4-yl)amino)hexyl)thio)-1-oxoisoindolin-2-yl)piperidine-2,6-dione], the IC50 in experiment [1] (setting [2]) was 0.33 ± 0.11 nM.

For the compound `COc1cc(N2CCC(N(C)C(=O)CCCCCSc3cccc4c3CN(C3CCC(=O)NC3=O)C4=O)CC2)ccc1Nc1ncc(Cl)c(Nc2ccccc2P(C)(C)=O)n1` (centres unmarked) [SIAIS353009, N-(1-(4-((5-chloro-4-((2-(dimethylphosphono)phenyl)amino)pyrimidin-2-yl)amino)-3-methoxyphenyl)piperidin-4-yl)-6-((2-(2,6-dioxopiperidin-3-yl)-1-oxoisoindolin-4-yl)thio)-N-methyl hexanamide], in experiment [1] (setting [2]), the IC50 is 10.5 ± 5.6 nM.

For `CCc1cc2c(cc1N1CCC(N)CC1)C(C)(C)c1[nH]c3cc(C#N)ccc3c1C2=O` [Alectinib derivative B (SIAIS184193), 8-(4-aminopiperidin-1-yl)-9-ethyl-6,6-dimethyl-11-oxo-6,11-dihydro-5H-benzo[b]carbazole-3-carbonitrile], the IC50 in experiment [1] (setting [3]) is 9.1 ± 5.5 nM.

Consider `COc1cc(N2CCC(N(C)CCCCCCSc3cccc4c3CN(C3CCC(=O)NC3=O)C4=O)CC2)ccc1Nc1ncc(Cl)c(Nc2ccccc2P(C)(C)=O)n1` (centres unmarked) [SIAIS353041, 3-(4-((6-((1-(4-((5-chloro-4-((2-(dimethylphosphono)phenyl)amino)pyrimidin-2-yl)amino)-3-methoxyphenyl)piperidin-4-yl)(methyl)amino)hexyl)thio)-1-oxoisoindolin-2-yl)piperidine-2,6-dione], for which the IC50 in experiment [1] (setting [2]) was found to be 0.5 ± 0.2 nM.

`CCc1cc2c(cc1N1CCC(N3CCN(C(=O)CCCCCCNc4cccc5c4CN(C4CCC(=O)NC4=O)C5=O)CC3)CC1)C(C)(C)c1[nH]c3cc(C#N)ccc3c1C2=O` (centres unmarked) [SIAIS262095, 8-(4-(4-(7-((2-(2,6-dioxopiperidin-3-yl)-1-oxoisoindolin-4-yl)amino)heptanoyl)piperazin-1-yl)piperidin-1-yl)-9-ethyl-6,6-dimethyl-1-oxo-6,11-dihydro-5H-benzo[b]carbazole-3-carbonitrile]: the IC50 in experiment [1] (setting [3]) is 3.2 ± 1.93 nM.

Turning to `COc1cc(N2CCC(N3CCN(C(=O)COCCOCCOCCNc4cccc5c4CN(C4CCC(=O)NC4=O)C5=O)CC3)CC2)ccc1Nc1ncc(Cl)c(Nc2ccccc2P(C)(C)=O)n1` (centres unmarked) [SIAIS352055, 3-(4-((2-(2-(2-(2-(4-(1-(4-((5-chloro-4-((2-(dimethylphosphono)phenyl)amino)pyrimidin-2-yl)amino)-3-methoxyphenyl)piperidin-4-yl)piperazin-1-yl)-2-oxoethoxy)ethoxy)ethoxy)ethyl)amino)-1-oxoisoindolin-2-yl)piperidine-2,6-dione], the IC50 in experiment [1] (setting [2]) came out at 15 ± 4.4 nM.

With `COc1cc(N2CCC(N3CCN(C(=O)COc4cccc5c4C(=O)N(C4CCC(=O)NC4=O)C5=O)CC3)CC2)ccc1Nc1ncc(Cl)c(Nc2ccccc2P(C)(C)=O)n1` (centres unmarked) [SIAIS293016, 4-(2-(4-(1-(4-((5-chloro-4-((2-(dimethylphosphono)phenyl)amino)pyrimidin-2-yl)amino)-3-methoxyphenyl)piperidin-4-yl)piperazin-1-yl)-2-oxoethoxy)-2-(2,6-dioxopiperidin-3-yl)isoindoline-1,3-dione], the IC50 in experiment [1] (setting [2]) is 7.2 nM.

`CCc1cc2c(cc1N1CCC(N3CCN(CCCCCCNc4cccc5c4C(=O)N(C4CCC(=O)NC4=O)C5=O)CC3)CC1)C(C)(C)c1[nH]c3cc(C#N)ccc3c1C2=O` (centres unmarked) [SIAIS293009, 8-(4-(4-(6-((2-(2,6-dioxopiperidin-3-yl)-1,3-dioxoisoindolin-4-yl)amino)hexyl)piperazin-1-yl)piperidin-1-yl)-9-ethyl-6,6-dimethyl-11-oxo-6,11-dihydro-5H-benzo[b]carbazole-3-carbonitrile]: the IC50 in experiment [1] (setting [3]) was determined as 15.1 nM.

For the compound `CCc1cc2c(cc1N1CCC(N3CCN(CCCCCCCC#Cc4cccc5c4CN(C4CCC(=O)NC4=O)C5=O)CC3)CC1)C(C)(C)c1[nH]c3cc(C#N)ccc3c1C2=O` (centres unmarked) [SIAIS293004, 8-(4-(4-(9-(2-(2,6-dioxopiperidin-3-yl)-1-oxoisoindolin-4-yl)non-8-yn-1-yl)piperazin-1-yl)piperidin-1-yl)-9-ethyl-6,6-dimethyl-11-oxo-6,11-dihydro-5H-benzo[b]carbazole-3-carbonitrile], in experiment [1] (setting [3]), the IC50 came out at 9.5 nM.

Turning to `CCc1cc2c(cc1N1CCC(N3CCN(CCCCSc4cccc5c4CN(C4CCC(=O)NC4=O)C5=O)CC3)CC1)C(C)(C)c1[nH]c3cc(C#N)ccc3c1C2=O` (centres unmarked) [SIAIS293060, 8-(4-(4-(4-((2-(2,6-dioxopiperidin-3-yl)-1-oxoisoindolin-4-yl)thio)butyl)piperazin-1-yl)piperidin-1-yl)-9-ethyl-6,6-dimethyl-11-oxo-6,11-dihydro-5H-benzo[b]carbazole-3-carbonitrile], the IC50 in experiment [1] (setting [3]) was 0.1 ± 0.02 nM.

For the compound `CCc1cc2c(cc1N1CCC(N3CCN(CCCCCNc4cccc5c4C(=O)N(C4CCC(=O)NC4=O)C5=O)CC3)CC1)C(C)(C)c1[nH]c3cc(C#N)ccc3c1C2=O` (centres unmarked) [SIAIS293008, 8-(4-(4-(5-((2-(2,6-dioxopiperidin-3-yl)-1,3-dioxoisoindolin-4-yl)amino)pentyl)piperazin-1-yl)piperidin-1-yl)-9-ethyl-6,6-dimethyl-11-oxo-6,11-dihydro-5H-benzo[b]carbazole-3-carbonitrile], the IC50 in experiment [1] (setting [3]) stood at 5.2 nM.
